Experimental data: patent publication US4132802A, “Benzoic acid derivative and benzenesulfonic acid mucolytic process” (Mead Johnson & Company, priority 1978, dated 1979)
“And” between values parts separate entries of the source, which are not always exact repeats. Equal values may be shown once. Read-outs that look alike come from different tables or passages of the source.

What was measured:
[1] = Mucolytic activity: percent reduction in viscosity of sputum, cone-plate viscometer (method of Lieberman); parameters: species or system human; conditions: for Relative molar potency compared to N-acetyl-L-cysteine: on a molar basis, N-acetyl-L-cysteine = 1; for Mucolytic activity compared to N-acetyl-L-cysteine (in words): compared with N-acetyl-L-cysteine
Procedure: Mucolytic activity was determined using the method of J. Lieberman, Am. J. Resp. […] This is a viscometric method which employs a cone-plate viscometer (Brookfield Engineering Laboratories, Inc., Stoughton, Mass.). According to this method, a 2 ml. aliquot of a batch of purulent human sputum (obtained from bronchitic patients) is transferred to the center of the viscometer plate and the temperature is allowed to equilibrate. The plate is then rotated at gradually increasing speeds up to 100 r.p.m. during a 2-minute period. This reduces the amount of sputum on the test plate to 1 ml. and reduces the viscosity of the specimen to a reproducible value which is necessary because of the thixotropic properties of sputum. […] The test is repeated with N-acetyl-L-cysteine employing another aliquot of sputum to establish a control for comparison purposes. Relative molar potencies compared to N-acetyl-L-cysteine (NAC) can be determined by varying concentration of the test agent until approximately equivalent mucolytic activity is obtained.

[2] = Toxicity (LD50, TD50) in the mouse; conditions: in vivo
From the text: The substances of Formula I are relatively non-toxic substances substantially free of other pharmacologic action.

SMILES | Percent reduction in viscosity ([1]; 0.005 Molar, 1 min, 5000 µM) [%] | Percent reduction in viscosity ([1]; 0.005 Molar, 3 min, 5000 µM) [%] | Percent reduction in viscosity ([1]; 0.005 Molar, 6 min, 5000 µM) [%] | Percent reduction in viscosity ([1]; 0.005 Molar, 9 min, 5000 µM) [%] | Percent reduction in viscosity ([1]; 0.005 Molar, 12 min, 5000 µM) [%] | Percent reduction in viscosity ([1]; 0.005 Molar, 15 min, 5000 µM) [%] | Percent reduction in viscosity ([1]; 0.01 Molar, 1 min, 10000 µM) [%] | Percent reduction in viscosity ([1]; 0.01 Molar, 3 min, 10000 µM) [%] | Percent reduction in viscosity ([1]; 0.01 Molar, 6 min, 10000 µM) [%] | Percent reduction in viscosity ([1]; 0.01 Molar, 9 min, 10000 µM) [%] | Percent reduction in viscosity ([1]; 0.01 Molar, 12 min, 10000 µM) [%] | Percent reduction in viscosity ([1]; 0.01 Molar, 15 min, 10000 µM) [%] | Relative molar potency compared to N-acetyl-L-cysteine [1] | Percent reduction in viscosity ([1]; 0.03 Molar, 1 min, 30000 µM) | Percent reduction in viscosity ([1]; 0.03 Molar, 3 min, 30000 µM) | Percent reduction in viscosity ([1]; 0.03 Molar, 6 min, 30000 µM) | Percent reduction in viscosity ([1]; 0.03 Molar, 9 min, 30000 µM) | Percent reduction in viscosity ([1]; 0.03 Molar, 12 min, 30000 µM) | Percent reduction in viscosity ([1]; 0.03 Molar, 15 min, 30000 µM) | Mucolytic activity compared to N-acetyl-L-cysteine (in words) [1] | further results
O=C(CS)Nc1ccc(C(=O)O)cc1 [Compound 1, 4-(2-MERCAPTOACETAMIDO)BENZOIC ACID] | 32 | 50 | 57 | 55 | 55 | 55 | 45 | 63 | 69 | 76 | 82 | 84 | approximately 12 times |  |  |  |  |  |  |  | LD50 ([2]; ip, intraperitoneally, read-out: LD50): 1110 mg/kg; TD50 ([2]; named in the same clause as the oral LD50, read-out: approximate TD50): ~250 mg/kg; LD50 ([2]; oral, read-out: approximate LD50): ~2000 mg/kg
O=C(CS)Nc1cccc(C(=O)O)c1 [Compound 2, 3-(2-MERCAPTOACETAMIDO)BENZOIC ACID] |  |  |  |  |  |  |  |  |  |  |  |  |  | 44% | 67% | 81% | 89% | 91% | 93% | substantially more active than N-acetyl-L-cysteine | 
O=C(CS)Nc1ccc(S(=O)(=O)O)cc1 [Compound 3, N-(2-MERCAPTOACETYL)SULFANILIC ACID] | 34 | 47 | 50 | 50 | 47 | 44 | 46 | 64 | 66 | 68 | 77 | 82 |  |  |  |  |  |  |  |  | 
O=C(CS)Nc1ccc(C(=O)NCCO)cc1 [Compound 4, N-(2-HYDROXYETHYL)-4-(2-MERCAPTOACETAMIDO)BENZAMIDE] | 30 | 58 | 67 | 75 | 82 | 82 |  |  |  |  |  |  | approximately 15 times |  |  |  |  |  |  |  | Percent reduction in viscosity ([1]; 0.001 Molar, 1 min): 25%; Percent reduction in viscosity ([1]; 0.001 Molar, 3 min, 1000 µM): 32%; Percent reduction in viscosity ([1]; 0.001 Molar, 6 min, 1000 µM): 36%; Percent reduction in viscosity ([1]; 0.001 Molar, 9 min, 1000 µM): 36%; Percent reduction in viscosity ([1]; 0.001 Molar, 12 min, 1000 µM): 36%; Percent reduction in viscosity ([1]; 0.001 Molar, 15 min, 1000 µM): 34%; Percent reduction in viscosity ([1]; 0.002 Molar, 1 min, 2000 µM): 26%; Percent reduction in viscosity ([1]; 0.002 Molar, 3 min, 2000 µM): 37%; Percent reduction in viscosity ([1]; 0.002 Molar, 6 min, 2000 µM): 42%; Percent reduction in viscosity ([1]; 0.002 Molar, 9 min, 2000 µM): 44%; Percent reduction in viscosity ([1]; 0.002 Molar, 12 min, 2000 µM): 44%; Percent reduction in viscosity ([1]; 0.002 Molar, 15 min, 2000 µM): 42%
CC(=O)SCC(=O)Nc1ccc(C(=O)O)cc1 [Compound 5, 4-[2-(ACETYLTHIO)ACETAMIDO]BENZOIC ACID] |  |  |  |  |  |  |  |  |  |  |  |  |  | 34% | 42% | 54% | 54% | 52% | 48% | significantly more active than N-acetyl-L-cysteine | 
CC(=O)N[C@@H](CS)C(=O)O [NAC, N-acetyl-L-cysteine, reference compound] |  |  |  |  |  |  |  |  |  |  |  |  |  | 25% and 29% and 33% | 32% and 33% and 34% | 40% and 36% | 42% and 40% and 34% | 42% and 43% and 34% | 40% and 34% |  | Percent reduction in viscosity ([1]; 0.06 Molar, 1 min, 60000 µM): 36%; Percent reduction in viscosity ([1]; 0.06 Molar, 3 min, 60000 µM): 45%; Percent reduction in viscosity ([1]; 0.06 Molar, 6 min, 60000 µM): 52%; Percent reduction in viscosity ([1]; 0.06 Molar, 9 min, 60000 µM): 50%; Percent reduction in viscosity ([1]; 0.06 Molar, 12 min, 60000 µM): 52%; Percent reduction in viscosity ([1]; 0.06 Molar, 15 min, 60000 µM): 60%
